Patent US20240216395A1, “19-NOR C3,3-DISUBSTITUTED C21 -N-PYRAZOLYL STEROID FOR USE IN TREATING MAJOR DEPRESSIVE DISORDER AND […]” (priority 2021, published 2024)
Like-named read-outs stand apart in the source and are kept apart here.

Assays:
[1] = Abuse potential main study: plasma pharmacokinetics after a single oral dose; type: in vivo, human; conditions: for Tmax / half-life / AUC(0-t) / Cmax: human, plasma
Protocol: Safety and tolerability endpoints included the frequency and severity of AEs and SAEs, the change from baseline in clinical laboratory assessments, vital signs, and ECG, and suicidality assessed by the Columbia-Suicide Severity Rating Scale (C-SSRS).
During the treatment phase, PK measures were assessed predose and at multiple time points, from 0.5 to 24 hours after dosing. Blood samples collected for plasma analyses were kept frozen (approximately −70° C. to −80° C.) until analysis. The quantification of the Compound (1) plasma concentration was performed by a bioanalytical laboratory (PRA Health Sciences, Lenexa, Kansas) using a validated liquid chromatography with a tandem mass spectroscopic method. The validated range of the assay was 1.00 to 500 ng/ml.
All PK analyses were based on the PK analysis set. Descriptive statistics included sample size, arithmetic mean, standard deviation, arithmetic coefficient of variation (CV), first quartile, median, and the minimum and maximum values […]. For summary statistics, PK concentration values below the limit of quantification were treated as zero. For calculating PK parameters, PK concentration values of zero that occurred prior to or after the first quantifiable concentration were imputed as zero or missing, respectively. The Compound (1) plasma PK parameters were estimated for each participant using noncompartmental analysis (Phoenix® WinNonlin® version 8.0 or later). The estimation of the terminal-elimination rate constant (λz) and λz-derived PK parameters were dependent upon inspection of PK data and a minimum of three time points in the terminal phase with adjusted R2 ≥0.8.

[2] = system: nondependent, recreational users of CNS depressants; assay: Abuse potential main study, treatment phase: subjective VAS measures (Drug Liking, Overall Drug Liking, Take Drug Again, High, Good/Bad/Any Drug Effects, Alertness/Drowsiness, Drug Similarity)
[3] = Alprazolam 1.5 mg - Compound (1) 30 mg
[4] = Alprazolam 1.5 mg - Compound (1) 30 mg (relative abuse potential)
[5] = Alprazolam 1.5 mg - Compound (1) 60 mg
[6] = Alprazolam 1.5 mg - Compound (1) 60 mg (relative abuse potential)
[7] = Alprazolam 1.5 mg - Compound (1) 90 mg
[8] = Alprazolam 1.5 mg - Compound (1) 90 mg (relative abuse potential)
[9] = Alprazolam 3 mg - Compound (1) 30 mg
[10] = Alprazolam 3 mg - Compound (1) 30 mg (relative abuse potential)
[11] = Alprazolam 3 mg - Compound (1) 60 mg
[12] = Alprazolam 3 mg - Compound (1) 60 mg (relative abuse potential)
[13] = Alprazolam 3 mg - Compound (1) 90 mg
[14] = Alprazolam 3 mg - Compound (1) 90 mg (relative abuse potential)
[15] = Compound (1) 30 mg - placebo (absolute abuse potential)
[16] = Compound (1) 60 mg - placebo (absolute abuse potential)
[17] = Compound (1) 90 mg - placebo (absolute abuse potential)

With C[C@@]1(O)CC[C@H]2[C@H](CC[C@@H]3[C@@H]2CC[C@]2(C)[C@@H](C(=O)Cn4cc(C#N)cn4)CC[C@@H]32)C1 [Compound (1), 1-(2-((3R,5R,8R,9R,10S,13S,14S,17S)-3-hydroxy-3,13-dimethylhexadecahydro-1H-cyclopenta[a]phenanthren-17-yl)-2-oxoethyl)-1H-pyrazole-4-carbonitrile] the “AUC0-24, geometric mean” value ([1]; 60 mg single oral dose) was 982 ng·h/mL, the “T½ values, range over doses” value ([1]; 30, 60, 90 mg, capsule) was 10 to 11 h and the Tmax ([1]; oral, 90 mg, 30, 60, 90 mg, capsule, read-out: Tmax (median), all three doses) was 5.1 h. The half-life ([1]; oral, 90 mg, 30, 60, 90 mg, capsule, read-out: T½ values, range over doses) was 9.92 to 10.9 h, the AUC(0-t) ([1]; oral, 30, 60, 90 mg, read-out: AUC0-24 values, range over doses) was 520 to 1330 ng·h/mL and the Cmax ([1]; oral, 30, 60, 90 mg, read-out: Cmax geometric mean values, range over doses) was 55.5 to 123 ng/mL. The half-life ([1]; po, 30 mg, 30 mg single oral dose (n = 66), read-out: T½, geometric mean (converted)) was 10.1 h, the Tmax ([1]; po, 30 mg, 30 mg single oral dose, read-out: Tmax, median) was 5.1 h and the half-life ([1]; po, 60 mg, 60 mg single oral dose (n = 60), read-out: T½, geometric mean (converted)) was 9.9 h. It also gave a Tmax ([1]; po, 60 mg, 60 mg single oral dose, read-out: Tmax, median) of 5.1 h, a half-life ([1]; po, 90 mg, 90 mg single oral dose (n = 62), read-out: T½, geometric mean (converted)) of 10.9 h and a Tmax ([1]; po, 90 mg, 90 mg single oral dose, read-out: Tmax, median) of 5.1 h. The Cmax ([1]; 30 mg single oral dose (n = 65), read-out: Cmax, geometric mean) was 55.5 ng/mL, the AUC(0-t) ([1]; 30 mg single oral dose, read-out: AUC0-24, geometric mean) was 520 ng·h/mL and the Cmax ([1]; 60 mg single oral dose (n = 66), read-out: Cmax, geometric mean) was 97.6 ng/mL. The Cmax ([1]; 90 mg single oral dose (n = 67), read-out: Cmax, geometric mean) was 123 ng/mL, the AUC(0-t) ([1]; 90 mg single oral dose, read-out: AUC0-24, geometric mean) was 1330 ng·h/mL and the “Alert/Drowsiness VAS: time scores remained below neutral value of 50” value ([2]; 30 mg) was 6-7 hours postdose. The “Alert/Drowsiness VAS: time scores remained below neutral value of 50” value ([2]; 60 and 90 mg) was 8-10 hours postdose, the “Drug Liking Emax difference” value [2, 3] was 12.50 and the “Overall Drug Liking Emax difference” value [2, 3] was 13.92. For the same molecule, the “Take Drug Again Emax difference” value [2, 3] was 13.67, the “Bad Drug Effects Emax difference” value [2, 4] was 0 and the “Good Drug Effects Emax difference” value [2, 4] was 24.62. The “High Effects Emax difference” value [2, 4] was 24.59, the “Drug Liking Emax difference” value [2, 5] was 2.00 and the “Overall Drug Liking Emax difference” value [2, 5] was 5.63. The “Take Drug Again Emax difference” value [2, 5] was 0, the “Bad Drug Effects Emax difference” value [2, 6] was 0 and the “Good Drug Effects Emax difference” value [2, 6] was 0.00. The “High Effects Emax difference” value [2, 6] was 7.57, the “Drug Liking Emax difference” value [2, 7] was −3.55 and the “Overall Drug Liking Emax difference” value [2, 7] was 1.12. The “Take Drug Again Emax difference” value [2, 7] was 0, the “Bad Drug Effects Emax difference” value [2, 8] was −12.93 and the “Good Drug Effects Emax difference” value [2, 8] was −12.00. The “High Effects Emax difference” value [2, 8] was −12.00, the “Drug Liking Emax difference” value [2, 9] was 14.00 and the “Overall Drug Liking Emax difference” value [2, 9] was 14.62. The “Take Drug Again Emax difference” value [2, 9] was 16.43, the “Bad Drug Effects Emax difference” value [2, 10] was 1.00 and the “Good Drug Effects Emax difference” value [2, 10] was 33.48. For the same molecule, the “High Effects Emax difference” value [2, 10] was 32.45, the “Drug Liking Emax difference” value [2, 11] was 2.50 and the “Overall Drug Liking Emax difference” value [2, 11] was 6.33. The “Take Drug Again Emax difference” value [2, 11] was 7.15, the “Bad Drug Effects Emax difference” value [2, 12] was 1.00 and the “Good Drug Effects Emax difference” value [2, 12] was 7.50. The “High Effects Emax difference” value [2, 12] was 15.42, the “Drug Liking Emax difference” value [2, 13] was 0.00 and the “Overall Drug Liking Emax difference” value [2, 13] was 1.82. The “Take Drug Again Emax difference” value [2, 13] was 0, the “Bad Drug Effects Emax difference” value [2, 14] was −1.82 and the “Good Drug Effects Emax difference” value [2, 14] was −1.00. The “High Effects Emax difference” value [2, 14] was −4.14, the “Drug Liking Emax difference” value ([2]; Compound (1) 30 mg - placebo) was 12.00 and the “Overall Drug Liking Emax difference” value ([2]; Compound (1) 30 mg - placebo) was 6.50. For the same molecule, the “Take Drug Again Emax difference” value ([2]; Compound (1) 30 mg - placebo) was 9.00, the “Bad Drug Effects Emax difference” value [2, 15] was 0 and the “Good Drug Effects Emax difference” value [2, 15] was 19.98. The “High Effects Emax difference” value [2, 15] was 19.21, the “Drug Liking Emax difference” value ([2]; Compound (1) 60 mg - placebo) was 18.12 and the “Overall Drug Liking Emax difference” value ([2]; Compound (1) 60 mg - placebo) was 16.75. The “Take Drug Again Emax difference” value ([2]; Compound (1) 60 mg - placebo) was 18.57, the “Bad Drug Effects Emax difference” value [2, 16] was 0 and the “Good Drug Effects Emax difference” value [2, 16] was 40.53. The “High Effects Emax difference” value [2, 16] was 36.23, the “Drug Similarity: Benzodiazepines Similarity median score” value ([2]; Compound (1) 90 mg) was 92.5 and the “Drug Similarity: Opioids Similarity median score” value ([2]; Compound (1) 90 mg) was 39.0. For the same molecule, the “Drug Liking Emax difference” value ([2]; Compound (1) 90 mg - placebo) was 25.00, the “Overall Drug Liking Emax difference” value ([2]; Compound (1) 90 mg - placebo) was 21.27 and the “Take Drug Again Emax difference” value ([2]; Compound (1) 90 mg - placebo) was 24.50. For the same molecule, the “Bad Drug Effects Emax difference” value [2, 17] was 0, the “Good Drug Effects Emax difference” value [2, 17] was 59.00 and the “High Effects Emax difference” value [2, 17] was 55.80. The “Drug Similarity: Placebo Similarity median score” value ([2]; all dosages, 12 hours postdose) was “zero”.
